US7608619B2, “Substituted oxazole compounds with analgesic activity” (Gruenenthal GmbH, priority 2005, dated 2009)

Each molecule was assayed against T1, human μ-opiate receptor (Homo sapiens, UniProt P35372) (assay: Affinity for the human μ-opiate receptor ([3H]-naloxone displacement, SPA, CHO-K1 membrane preparation)). Details: test substance 1 μmole/l; displacement of 1 nmole/l [3H]-naloxone; percentage inhibition of the specific binding.
T1 construct: purchased Nen company, Zaventem, Belgium RB-HOM; host or cells: CHO-K1 cells (membrane preparation)
T1 sequence (P35372 whole entry): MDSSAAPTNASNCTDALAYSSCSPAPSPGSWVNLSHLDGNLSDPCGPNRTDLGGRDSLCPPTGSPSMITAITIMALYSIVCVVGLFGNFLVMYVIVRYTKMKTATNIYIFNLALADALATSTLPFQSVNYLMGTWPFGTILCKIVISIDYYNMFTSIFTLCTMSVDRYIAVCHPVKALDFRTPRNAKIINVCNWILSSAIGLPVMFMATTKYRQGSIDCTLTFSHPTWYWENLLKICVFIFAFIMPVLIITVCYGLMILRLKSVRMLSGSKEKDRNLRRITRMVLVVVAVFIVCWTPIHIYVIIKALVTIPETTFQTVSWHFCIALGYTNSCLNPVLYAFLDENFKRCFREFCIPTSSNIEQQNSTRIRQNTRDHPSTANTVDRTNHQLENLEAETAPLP
How it was run: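 [3H]-naloxone (1 nmol/l) displacement by SPA with WGA beads, using membranes of CHO-K1 cells expressing the receptor, in 50 mmol/l Tris-HCl with 0.05% azide and 0.06% BSA; 90 min at room temperature. Non-specific binding defined with 25 μmol/l naloxone. Value is % inhibition of specific binding at 1 μmol/l test compound.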
In the case of `CN(C)C(c1cccs1)C1CCC(C(c2nc(Cc3ccccc3)c(N3CCCC3)o2)N2CCN(c3ccc(F)cc3)CC2)CC1` (centres unmarked) [compound 142, [(4.-{(4-benzyl-5-pyrrolidin-1-yl-oxazol-2-yl)-[4-(4-fluorophenyl)-piperazin-1-yl]-me.thyl}-cyclohexyl)-thiophen-2-yl-methyl]-dimethylamine], the “μ-opioid receptor, % inhibition [1 μM]” value is reported as 85%.

Same assay, conditions: test substance 1 μmole/l; displacement of 1 nmole/l [3H]-naloxone; percentage inhibition of the specific binding; read-out: μ-opioid receptor, % inhibition [1 μM]
With `CC1CCCN(c2oc(C(CC3CCC(C(c4cccs4)N(C)C)CC3)N(C)c3ccccc3)nc2Cc2ccccc2)C1` (centres unmarked) [compound 117, {1-[4-benzyl-5-(3-methylpiperidin-1-yl)-oxazol-2-yl]-2-[4-(dimethylamino-thiophen-2-yl-methyl)-cyclohexyl]-ethyl}-methylphenylamine] the inhibition at 1 µM was 99%. `CN(C)C(c1cccs1)C1CCC(CC(c2nc(Cc3ccccc3)c(N3CCSCC3)o2)N2CCN(Cc3ccccc3)CC2)CC1` (centres unmarked) [compound 118, ({4-[2-(4-benzylpiperazin-1-yl)-2-(4-benzyl-5-thiomorpholin-4-yl-oxazol-2-yl)-ethyl]-cyclohexyl}-thiophen-2-yl-methyl)-dimethylamine] showed an inhibition at 1 µM of 84%. `CC1CCCN(c2oc(C(CC3CCC(C(c4cccs4)N(C)C)CC3)N3CCN(Cc4ccccc4)CC3)nc2Cc2ccccc2)C1` (centres unmarked) [compound 119, ({4-[2-[4-benzyl-5-(3-methylpiperidin-1-yl)-oxazol-2-yl]-2-(4-benzyl-piperazin-1-yl)-ethyl]-cyclohexyl}-thiophen-2-yl-methyl)-dimethylamine] gave an inhibition at 1 µM of 99%. For `CN(C)C(c1cccc(F)c1)C1CCC(C(c2nc(Cc3ccccc3)c(N3CCCC3)o2)N2CCOCC2)CC1` (centres unmarked) [compound 120, [{4-[(4-benzyl-5-pyrrolidin-1-yl-oxazol-2-yl)-morpholin-4-yl-methyl]-cyclohexyl}-(3-fluorophenyl)-methyl]-dimethylamine], the inhibition at 1 µM was 75%. `CN(C)C(c1cccc(F)c1)C1CCC(C(c2nc(Cc3ccccc3)c(N3CCOCC3)o2)N2CCOCC2)CC1` (centres unmarked) [compound 121, [{4-[(4-benzyl-5-morpholin-4-yl-oxazol-2-yl)-morpholin-4-yl-methyl]-cyclohexyl}-(3-fluorophenyl)-methyl]-dimethylamine] was tested, and the inhibition at 1 µM was 67%. `CN(C)C(c1cccc(F)c1)C1CCC(C(c2nc(Cc3ccccc3)c(N3CCCC3)o2)N2CCN(c3ccc(F)cc3)CC2)CC1` (centres unmarked) [compound 122, [(4-{(4-benzyl-5-pyrrolidin-1-yl-oxazol-2-yl)-[4-(4-fluorophenyl)-piperazin-1-yl]-methyl}-cyclohexyl)-(3-fluorophenyl)-methyl]-dimethylamine] was tested, and the inhibition at 1 µM was 72%. For `COc1ccc(N2CCN(C(c3nc(Cc4ccccc4)c(N4CCCC4)o3)C3CCC(C(c4cccc(F)c4)N(C)C)CC3)CC2)cc1` (centres unmarked) [compound 123, [(4-{(4-benzyl-5-pyrrolidin-1-yl-oxazol-2-yl)-[4-(4-methoxyphenyl)-piperazin-1-yl]-methyl}-cyclohexyl)-(3-fluorophenyl)-methyl]-dimethylamine], the inhibition at 1 µM was 66%. Molecule `COc1ccc(N2CCN(C(c3nc(Cc4ccccc4)c(N4CCOCC4)o3)C3CCC(C(c4cccc(F)c4)N(C)C)CC3)CC2)cc1` (centres unmarked) [compound 124, [(4-{(4-benzyl-5-morpholin-4-yl-oxazol-2-yl)-[4-(4-methoxyphenyl)-piperazin-1-yl]-methyl}-cyclohexyl)-(3-fluorophenyl)-methyl]-dimethylamine] has an inhibition at 1 µM of 60%. With `CN(C)C(c1cccc(F)c1)C1CCC(C(c2nc(Cc3ccccc3)c(N3CCCC3)o2)N2CCc3ccccc3C2)CC1` (centres unmarked) [compound 125, [{4-[(4-benzyl-5-pyrrolidin-1-yl-oxazol-2-yl)-(3,4-dihydro-1H-isoquinolin-2-yl)-methyl]-cyclohexyl}-(3-fluorophenyl)-methyl]-dimethylamine] the inhibition at 1 µM was 83%. For `CN(C)C(c1cccc(F)c1)C1CCC(C(c2nc(Cc3ccccc3)c(N3CCOCC3)o2)N2CCc3ccccc3C2)CC1` (centres unmarked) [compound 126, [{4-[(4-benzyl-5-morpholin-4-yl-oxazol-2-yl)-(3,4-dihydro-1H-isoquinolin-2-yl)-methyl]-cyclohexyl}-(3-fluorophenyl)-methyl]-dimethylamine], the inhibition at 1 µM was 76%. `COc1ccc(N2CCN(c3oc(C(C4CCC(C(c5cccc(F)c5)N(C)C)CC4)N4CCc5ccccc5C4)nc3Cc3ccccc3)CC2)cc1` (centres unmarked) [compound 127, [{4-[{4-benzyl-5-[4-(4-methoxy-phenyl)-piperazin-1-yl]-oxazol-2-yl}-(3,4-dihydro-1H-isoquinolin-2-yl)-methyl]-cyclohexyl}-(3-fluorophenyl)-methyl]-dimethylamine] gave an inhibition at 1 µM of 73%. In the case of `CC1CN(c2oc(C(C3CCC(C(c4cccc(F)c4)N(C)C)CC3)N3CCc4ccccc4C3)nc2Cc2ccccc2)CC(C)O1` (centres unmarked) [compound 128, [{4-[[4-benzyl-5-(2,6-dimethyl-morpholin-4-yl)-oxazol-2-yl]-(3,4-dihydro-1H-isoquinolin-2-yl)-methyl]-cyclohexyl}-(3-fluorophenyl)-methyl]-dimethylamine], the inhibition at 1 µM is reported as 71%. With `CN(C)C(c1ccc(Cl)cc1)C1CCC(C(c2nc(Cc3ccccc3)c(N3CCCC3)o2)N2CCOCC2)CC1` (centres unmarked) [compound 129, [{4-[(4-benzyl-5-pyrrolidin-1-yl-oxazol-2-yl)-morpholin-4-yl-methyl]-cyclohexyl}-(4-chlorophenyl)-methyl]-dimethylamine] the inhibition at 1 µM was 75%. `CN(C)C(c1ccc(Cl)cc1)C1CCC(C(c2nc(Cc3ccccc3)c(N3CCOCC3)o2)N2CCOCC2)CC1` (centres unmarked) [compound 130, [{4-[(4-benzyl-5-morpholin-4-yl-oxazol-2-yl)-morpholin-4-yl-methyl]-cyclohexyl}-(4-chlorophenyl)-methyl]-dimethylamine] gave an inhibition at 1 µM of 77%. In the case of `COc1ccc(N2CCN(c3oc(C(C4CCC(C(c5ccc(Cl)cc5)N(C)C)CC4)N4CCOCC4)nc3Cc3ccccc3)CC2)cc1` (centres unmarked) [compound 131, [[4-({4-benzyl-5-[4-(4-methoxyphenyl)-piperazin-1-yl]-oxazol-2-yl}-morpholin-4-yl-methyl)-cyclohexyl]-(4-chlorophenyl)-methyl]-dimethylamine], the inhibition at 1 µM is reported as 64%. `CC1CN(c2oc(C(C3CCC(C(c4ccc(Cl)cc4)N(C)C)CC3)N3CCOCC3)nc2Cc2ccccc2)CC(C)O1` (centres unmarked) [compound 132, [(4-{[4-benzyl-5-(2,6-dimethylmorpholin-4-yl)-oxazol-2-yl]-morpholin-4-yl-methyl}-cyclohexyl)-(4-chlorophenyl)-methyl]-dimethylamine] gave an inhibition at 1 µM of 64%. `CN(C)C(c1ccc(Cl)cc1)C1CCC(C(c2nc(Cc3ccccc3)c(N3CCCC3)o2)N2CCN(c3ccc(F)cc3)CC2)CC1` (centres unmarked) [compound 133, [(4-{(4-benzyl-5-pyrrolidin-1-yl-oxazol-2-yl)-[4-(4-fluorophenyl)-piperazin-1-yl]-methyl}-cyclohexyl)-(4-chlorophenyl)-methyl]-dimethylamine] showed an inhibition at 1 µM of 64%. For `COc1ccc(N2CCN(C(c3nc(Cc4ccccc4)c(N4CCCC4)o3)C3CCC(C(c4ccc(Cl)cc4)N(C)C)CC3)CC2)cc1` (centres unmarked) [compound 134, [(4-{(4-benzyl-5-pyrrolidin-1-yl-oxazol-2-yl)-[4-(4-methoxyphenyl)-piperazin-1-yl]-methyl}-cyclohexyl)-(4-chlorophenyl)-methyl]-dimethylamine], the inhibition at 1 µM was 72%. For `COc1ccc(N2CCN(C(c3nc(Cc4ccccc4)c(N4CCOCC4)o3)C3CCC(C(c4ccc(Cl)cc4)N(C)C)CC3)CC2)cc1` (centres unmarked) [compound 135, [(4-{(4-benzyl-5-morpholin-4-yl-oxazol-2-yl)-[4-(4-methoxyphenyl)-piperazin-1-yl]-methyl}-cyclohexyl)-(4-chlorophenyl)-methyl]-dimethylamine], the inhibition at 1 µM was 70%. `COc1ccc(N2CCN(C(c3nc(Cc4ccccc4)c(N4CC(C)OC(C)C4)o3)C3CCC(C(c4ccc(Cl)cc4)N(C)C)CC3)CC2)cc1` (centres unmarked) [compound 136, [(4-{[4-benzyl-5-(2,6-dimethylmorpholin-4-yl)-oxazol-2-yl]-[4-(4-methoxy-phenyl)-piperazin-1-yl]-methyl}-cyclohexyl)-(4-chlorophenyl)-methyl]-dimethylamine] gave an inhibition at 1 µM of 62%. `CN(C)C(c1ccc(Cl)cc1)C1CCC(C(c2nc(Cc3ccccc3)c(N3CCCC3)o2)N2CCc3ccccc3C2)CC1` (centres unmarked) [compound 137, [{4-[(4-benzyl-5-pyrrolidin-1-yl-oxazol-2-yl)-(3,4-dihydro-1H-isoquinolin-2-yl)-methyl]-cyclohexyl}-(4-chlorophenyl)-methyl]-dimethylamine] showed an inhibition at 1 µM of 85%. With `CN(C)C(c1cccs1)C1CCC(C(c2nc(Cc3ccccc3)c(N3CCCC3)o2)N2CCOCC2)CC1` (centres unmarked) [compound 138, ({4-[(4-benzyl-5-pyrrolidin-1-yl-oxazol-2-yl)-morpholin-4-yl-methyl]-cyclohexyl}-thiophen-2-yl-methyl)-dimethylamine] the inhibition at 1 µM was 91%. `CN(C)C(c1cccs1)C1CCC(C(c2nc(Cc3ccccc3)c(N3CCOCC3)o2)N2CCOCC2)CC1` (centres unmarked) [compound 139, ({4-[(4-benzyl-5-morpholin-4-yl-oxazol-2-yl)-morpholin-4-yl-methyl]-cyclohexyl}-thiophen-2-yl-methyl)-dimethylamine] was tested, and the inhibition at 1 µM was 72%. `COc1ccc(N2CCN(c3oc(C(C4CCC(C(c5cccs5)N(C)C)CC4)N4CCOCC4)nc3Cc3ccccc3)CC2)cc1` (centres unmarked) [compound 140, {[4-({4-benzyl-5-[4-(4-methoxyphenyl)-piperazin-1-yl]-oxazol-2-yl}-morpholin-4-yl-methyl)-cyclohexyl]-thiophen-2-yl-methyl}-dimethylamine] was tested, and the inhibition at 1 µM was 67%. Work on `CC1CN(c2oc(C(C3CCC(C(c4cccs4)N(C)C)CC3)N3CCOCC3)nc2Cc2ccccc2)CC(C)O1` (centres unmarked) [compound 141, [(4-{[4-benzyl-5-(2,6-dimethylmorpholin-4-yl)-oxazol-2-yl]-morpholin-4-yl-methyl}-cyclohexyl)-thiophen-2-yl-methyl]-dimethylamine] yielded an inhibition at 1 µM of 65%.
